Like-named read-outs stand apart in the source and are kept apart here.
Columns and labels:
XIAP BIR3 = target: T1, XIAP BIR3 (Homo sapiens, UniProt P98170); assay: XIAP-BIR3/SMAC Homogeneous Time Resolved Fluorescence (HTRF) Assay; type: binding
T1 construct: His-BIR3 (241-356, XIAP)
Outline: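 Competition HTRF between XIAP-BIR3 and SMAC; reaction 60 min at room temperature, then anti-6×His-terbium Fab detection for a further 30 min.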

XIAP BIR2-3 = target: T2, XIAP BIR2-3 (Homo sapiens, UniProt P98170, C202A/C213G); assay: XIAP-BIR2-3 dimeric SMAC Peptide Homogeneous Time Resolved Fluorescence (HTRF) Assay; type: binding
T2 construct: His-BIR2-3 (125-356, C202A/C213G, XIAP)
T2 sequence (P98170 125-356 C202A/C213G): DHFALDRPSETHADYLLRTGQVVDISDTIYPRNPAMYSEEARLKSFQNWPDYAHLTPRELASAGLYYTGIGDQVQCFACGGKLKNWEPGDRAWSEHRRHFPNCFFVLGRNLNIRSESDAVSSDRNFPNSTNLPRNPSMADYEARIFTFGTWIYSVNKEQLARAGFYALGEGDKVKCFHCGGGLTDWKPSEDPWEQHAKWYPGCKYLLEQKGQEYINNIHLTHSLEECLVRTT
Method: B. […] Assays were performed in black, flat-bottom, 384-well plates. […] Compounds were dissolved at 3 mM in dimethylsulfoxide (DMSO) and evaluated at eleven serially diluted concentrations. IC50 and Ki values were derived by non-linear regression analysis.

[1] = 1 nM N-His-BIR3 (241-356, XIAP), 5 nM fluorescein labeled SMAC peptide, HTRF signal, read-out: XIAP BIR3 IC50
[2] = 0.5 nM N-His-BIR2-3 (125-356, C202A/C213G, XIAP), 20 nM fluorescein labeled dimeric SMAC peptide, HTRF signal, read-out: XIAP BIR2-3 IC50

T1 sequence (P98170 241-356): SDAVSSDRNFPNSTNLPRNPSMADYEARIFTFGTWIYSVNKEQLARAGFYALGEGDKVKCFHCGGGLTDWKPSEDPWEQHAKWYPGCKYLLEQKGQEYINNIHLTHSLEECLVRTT

SMILES	IC50 (XIAP BIR3; [1])	IC50 (XIAP BIR2-3; [2])	IC50 (XIAP BIR3)	IC50 (XIAP BIR2-3)
CN[C@@H](C)C(=O)N[C@H](C(=O)N1Cc2cc([C@H]3C[C@@H](C(=O)N[C@@H]4CCCc5ccccc54)N(C(=O)[C@@H](NC(=O)[C@H](C)NC)C(C)(C)C)C3)ccc2C[C@H]1C(=O)N[C@@H](Cc1ccccc1)C(=O)OC)C(C)(C)C [Example 40, (S)-Methyl 2-((S)-2-((S)-3,3-dimethyl-2-((S)-2-(methylamino)propanamido)butanoyl)-7-((3R,5S)-1-((S)-3,3-dimethyl-2-((S)-2-(methylamino)propanamido)butanoyl)-5-(((R)-1,2,3,4-tetrahydronaphthalen-1-yl)carbamoyl)pyrrolidin-3-yl)-1,2,3,4-tetrahydroisoquinoline-3-carboxamido)-3-phenylpropanoate]	1.5 nM	0.9 nM	–	–
CN[C@@H](C)C(=O)N[C@H](C(=O)N1Cc2cc([C@H]3C[C@@H](C(=O)N[C@@H]4CCCc5ccccc54)N(C(=O)[C@@H](NC(=O)[C@H](C)NC)C(C)(C)C)C3)ccc2C[C@H]1C(=O)N[C@@H](Cc1ccccc1)C(=O)O)C(C)(C)C [Example 41, (S)-2-((S)-2-((S)-3,3-Dimethyl-2-((S)-2-(methylamino)propanamido)butanoyl)-7-((3R,5S)-1-((S)-3,3-dimethyl-2-((S)-2-(methylamino)propanamido)butanoyl)-5-(((R)-1,2,3,4-tetrahydronaphthalen-1-yl)carbamoyl)pyrrolidin-3-yl)-1,2,3,4-tetrahydroisoquinoline-3-carboxamido)-3-phenylpropanoic acid]	4.6 nM	1.5 nM	–	–
CN[C@@H](C)C(=O)N[C@H](C(=O)N1Cc2cc([C@H]3C[C@@H](C(=O)N[C@@H]4CCCc5ccccc54)N(C(=O)[C@@H](NC(=O)[C@H](C)NC)C(C)(C)C)C3)ccc2C[C@H]1C(=O)N[C@@H](Cc1ccccc1)C(=O)N(C)C)C(C)(C)C [Example 42, (S)-2-((S)-3,3-Dimethyl-2-((S)-2-(methylamino)propanamido)butanoyl)-7-((3R,5S)-1-((S)-3,3-dimethyl-2-((S)-2-(methylamino)propanamido)butanoyl)-5-(((R)-1,2,3,4-tetrahydronaphthalen-1-yl)carbamoyl)pyrrolidin-3-yl)-N—((S)-1-(dimethylamino)-1-oxo-3-phenylpropan-2-yl)-1,2,3,4-tetrahydroisoquinoline-3-carboxamide]	1.6 nM	1.2 nM	–	–
CN[C@@H](C)C(=O)N[C@H](C(=O)N1Cc2cc([C@H]3C[C@@H](C(=O)N[C@@H]4CCCc5ccccc54)N(C(=O)[C@@H](NC(=O)[C@H](C)NC)C(C)(C)C)C3)ccc2C[C@H]1C(=O)N[C@@H](Cc1ccccc1)C(=O)N1CCOCC1)C(C)(C)C [Example 43, (S)-2-((S)-3,3-Dimethyl-2-((S)-2-(methylamino)propanamido)butanoyl)-7-((3R,5S)-1-((S)-3,3-dimethyl-2-((S)-2-(methylamino)propanamido)butanoyl)-5-(((R)-1,2,3,4-tetrahydronaphthalen-1-yl)carbamoyl)pyrrolidin-3-yl)-N—((S)-1-morpholino-1-oxo-3-phenylpropan-2-yl)-1,2,3,4-tetrahydroisoquinoline-3-carboxamide]	2 nM	1.3 nM	–	–
CN[C@@H](C)C(=O)N[C@H](C(=O)N1Cc2cc([C@H]3C[C@@H](C(=O)N[C@@H]4CCCc5ccccc54)N(C(=O)[C@@H](NC(=O)[C@H](C)NC)C(C)(C)C)C3)ccc2C[C@H]1C(=O)N[C@H](COCCO)Cc1ccccc1)C(C)(C)C [Example 44, (S)-2-((S)-3,3-Dimethyl-2-((S)-2-(methylamino)propanamido)butanoyl)-7-((3R,5S)-1-((S)-3,3-dimethyl-2-((S)-2-(methylamino)propanamido)butanoyl)-5-(((R)-1,2,3,4-tetrahydronaphthalen-1-yl)carbamoyl)pyrrolidin-3-yl)-N—((S)-1-(2-hydroxyethoxy)-3-phenylpropan-2-yl)-1,2,3,4-tetrahydroisoquinoline-3-carboxamide]	10.3 nM	17.4 nM	–	–
CN[C@@H](C)C(=O)N[C@H](C(=O)N1Cc2cc([C@H]3C[C@@H](C(=O)N[C@@H]4CCCc5ccccc54)N(C(=O)[C@@H](NC(=O)[C@H](C)NC)C(C)(C)C)C3)ccc2C[C@H]1C(=O)N[C@@H](Cc1ccccc1)c1noc(C)n1)C(C)(C)C [Example 45, (S)-2-((S)-3,3-Dimethyl-2-((S)-2-(methylamino)propanamido)butanoyl)-7-((3R,5S)-1-((S)-3,3-dimethyl-2-((S)-2-(methylamino)propanamido)butanoyl)-5-(((R)-1,2,3,4-tetrahydronaphthalen-1-yl)carbamoyl)pyrrolidin-3-yl)-N—((S)-1-(5-methyl-1,2,4-oxadiazol-3-yl)-2-phenylethyl)-1,2,3,4-tetrahydroisoquinoline-3-carboxamide]	9.2 nM	4.2 nM	–	–
CN[C@@H](C)C(=O)N[C@H](C(=O)N1C[C@@H](c2ccc3c(c2)CN(C(=O)[C@@H](NC(=O)[C@H](C)NC)C(C)(C)C)[C@H](C(=O)N[C@@H]2CCCc4ccccc42)C3)C[C@H]1C(=O)N[C@@H](Cc1ccccc1)C(=O)NS(=O)(=O)c1ccccc1)C(C)(C)C [Example 48, (S)-2-((S)-3,3-Dimethyl-2-((S)-2-(methylamino)propanamido)butanoyl)-7-((3R,5S)-1-((S)-3,3-dimethyl-2-((S)-2-(methylamino)propanamido)butanoyl)-5-(((S)-1-oxo-3-phenyl-1-(phenylsulfonamido)propan-2-yl)carbamoyl)pyrrolidin-3-yl)-N-((R)-1,2,3,4-tetrahydronaphthalen-1-yl)-1,2,3,4-tetrahydroisoquinoline-3-carboxamide]	–	–	0.8 nM	0.7 nM

The next lines start with results.

IC50 (XIAP BIR3; [1])	IC50 (XIAP BIR2-3; [2])	SMILES	IC50 (XIAP BIR3)	IC50 (XIAP BIR2-3)
10.2 nM	1.6 nM	CN[C@@H](C)C(=O)N[C@H](C(=O)N1C[C@@H](c2ccc3c(c2)CN(C(=O)[C@@H](NC(=O)[C@H](C)NC)C(C)(C)C)[C@H](C(=O)N[C@@H]2CCCc4ccccc42)C3)C[C@H]1C(=O)N[C@@H](Cc1ccccc1)C(N)=O)C(C)(C)C [Example 46, (S)-7-((3R,5S)-5-(((S)-1-Amino-1-oxo-3-phenylpropan-2-yl)carbamoyl)-1-((S)-3,3-dimethyl-2-((S)-2-(methylamino)propanamido)butanoyl)pyrrolidin-3-yl)-2-((S)-3,3-dimethyl-2-((S)-2-(methylamino)propanamido)butanoyl)-N—((R)-1,2,3,4-tetrahydronaphthalen-1-yl)-1,2,3,4-tetrahydroisoquinoline-3-carboxamide]	–	–
17.5 nM	2.4 nM	CN[C@@H](C)C(=O)N[C@H](C(=O)N1C[C@@H](c2ccc3c(c2)CN(C(=O)[C@@H](NC(=O)[C@H](C)NC)C(C)(C)C)[C@H](C(=O)N[C@@H]2CCCc4ccccc42)C3)C[C@H]1C(=O)N[C@@H](Cc1ccccc1)C(=O)N1CCOCC1)C(C)(C)C [Example 47, (S)-2-((S)-3,3-Dimethyl-2-((S)-2-(methylamino)propanamido)butanoyl)-7-((3R,5S)-1-((S)-3,3-dimethyl-2-((S)-2-(methylamino)propanamido)butanoyl)-5-(((S)-1-morpholino-1-oxo-3-phenylpropan-2-yl)carbamoyl)pyrrolidin-3-yl)-N-((R)-1,2,3,4-tetrahydronaphthalen-1-yl)-1,2,3,4-tetrahydroisoquinoline-3-carboxamide]	–	–
0.4 nM	0.5 nM	CN[C@@H](C)C(=O)N[C@H](C(=O)N1C[C@@H](c2ccc3c(c2)CN(C(=O)[C@@H](NC(=O)[C@H](C)NC)C(C)(C)C)[C@H](C(=O)N[C@@H]2CCCc4ccccc42)C3)C[C@H]1C(=O)N[C@@H](Cc1ccccc1)C(=O)NS(=O)(=O)c1ccc2ccccc2c1)C(C)(C)C [Example 49, (S)-2-((S)-3,3-Dimethyl-2-((S)-2-(methylamino)propanamido)butanoyl)-7-((3R,5S)-1-((S)-3,3-dimethyl-2-((S)-2-(methylamino)propanamido)butanoyl)-5-(((S)-1-(naphthalene-2-sulfonamido)-1-oxo-3-phenylpropan-2-yl)carbamoyl)pyrrolidin-3-yl)-N-((R)-1,2,3,4-tetrahydronaphthalen-1-yl)-1,2,3,4-tetrahydroisoquinoline-3-carboxamide]	–	–
0.9 nM	1.2 nM	CN[C@@H](C)C(=O)N[C@H](C(=O)N1C[C@@H](c2ccc3c(c2)CN(C(=O)[C@@H](NC(=O)[C@H](C)NC)C(C)(C)C)[C@H](C(=O)N[C@@H]2CCCc4ccccc42)C3)C[C@H]1C(=O)N[C@@H](Cc1ccccc1)C(=O)NS(=O)(=O)C1CC1)C(C)(C)C [Example 50, (S)-7-((3R,5S)-5-(((S)-1-(Cyclopropanesulfonamido)-1-oxo-3-phenylpropan-2-yl)carbamoyl)-1-((S)-3,3-dimethyl-2-((S)-2-(methylamino)propanamido)butanoyl)pyrrolidin-3-yl)-2-((S)-3,3-dimethyl-2-((S)-2-(methylamino)propanamido)butanoyl)-N-((R)-1,2,3,4-tetrahydronaphthalen-1-yl)-1,2,3,4-tetrahydroisoquinoline-3-carboxamide]	–	–
19.4 nM	9.6 nM	CCNC(=O)[C@H](Cc1ccccc1)NC(=O)[C@@H]1C[C@H](c2ccc3c(c2)CN(C(=O)[C@@H](NC(=O)[C@H](C)NC)C(C)(C)C)[C@H](C(=O)N[C@@H]2CCCc4ccccc42)C3)CN1C(=O)[C@@H](NC(=O)[C@H](C)NC)C(C)(C)C [Example 51, (S)-2-((S)-3,3-Dimethyl-2-((S)-2-(methylamino)propanamido)butanoyl)-7-((3R,5S)-1-((S)-3,3-dimethyl-2-((S)-2-(methylamino)propanamido)butanoyl)-5-(((S)-1-(ethylamino)-1-oxo-3-phenylpropan-2-yl)carbamoyl)pyrrolidin-3-yl)-N-((R)-1,2,3,4-tetrahydronaphthalen-1-yl)-1,2,3,4-tetrahydroisoquinoline-3-carboxamide]	–	–

Source: patent US8889712B2, “IAP antagonists” (Bristol-Myers Squibb Company, priority 2012, dated 2014)
